As usually defined, the EC50 is the concentration that produces a half-maximal response.

Series [1] relates to primary human dermal fibroblasts (HDF). The experiment in a line: Fibroblast proliferation assay (2D) in the presence of wound exudate. The format is cell-based. The protocol:
Primary human dermal fibroblasts (HDF) were purchased from CELLnTEC, Bern. They were routinely grown in Dulbecco's modified Eagle's medium (DMEM) containing 10% FCS, 2 mM glutamine, and 100 U/ml penicillin/100 μg/ml streptomycin. Media, antibiotics, and glutamine were bought from Lonza. The cells were used at passage 5-15. Cells were trypsinized and seeded at 2500 cells/well in 30 μl into the inner wells of 384-well plates in the absence or presence of graded compound concentrations with or without different dilutions of sterile-filtered WE in medium. For control samples, 30 μl medium was added instead of specific stimuli. The outer wells were loaded with sterile water. The cells were incubated for 72 hours at 37° C.
At the end of the incubation period, supernatants were removed for the determination of IL-1β, and the cells were fixed with 4% paraformaldehyde (Morphisto) for 15 minutes at room temperature and washed 3 times with PBS. A control plate was fixed after the overnight adherence of the cells (day 1) to determine the starting cell number.
Total cellular protein was determined as a measure of cell number by staining the fixed cells with sulforhodamine B (SRB, Sigma). A 0.4% SRB solution in 1% acetic acid was added to the wells for 30 minutes. The wells were then washed with 1% acetic acid until the wash solution remained colorless. After drying, the dye was eluted with 10 mM Tris-HCl, pH8.5, and absorbance was measured either at 550 or 492 nm for lower and higher cell densities, respectively. The average absorbance of the sample representing the day 1 starting cell number was subtracted from the absorbance values of the WE-treated cells.
All experiments were carried out in triplicate for each sample and concentration, and means±standard deviation (SD) were used for the evaluation of the experiment. Results are expressed as percentage of control values for unstimulated cells.

The subject of a further series is Collagen 1a. The experiment in a line: mRNA expression in fibroblast cultures (qRT-PCR): collagen 1. It is filed as cell-based, human. The conditions noted are these: WE-1, graded concentrations, 72-hour incubation (FIG. 6A). The procedure: (§1) Cells were seeded into 24-well plates and incubated with compounds in the presence or absence of wound exudates for 72 hours. Total RNA was isolated using the RNeasy Mini Kit (QIAGEN #74106) according to the manufacturer's protocol. RNA integrity and concentration for each sample was confirmed and measured with the Qubit fluorometer. Each RNA sample was then diluted to 2 ng/μl in nuclease-free doubly distilled water.
20 ng of total RNA were reverse-transcribed into cDNA and immediately subjected to PCR amplification using the SuperScript Ill Platinum One-Step Quantitative RT-PCR System with ROX (Invitrogen #11745). qRT-PCR amplifications were performed in 20 μl reactions containing 9 μl 2× Reaction Mix with ROX, 0.4 μl SuperScript III RT/Platinum Taq Mix and 1 μl primer (final: 900 nM, Taqman Gene Expression Assay, Applied Biosystems)
The program included 30 minutes of reverse transcription at 48° C., an initial denaturation for 5 minutes at 95° C. followed by 40 cycles of denaturation at 95° C. for 15 seconds and annealing at 60° C. for 60 seconds. Reactions were set up in 96-well format PCR plates (Peqlab #732-2879) and carried out in a Mx3005P Real-Time PCR Detection System (Stratagene).
TaqMan Gene Expression Assays (Applied Biosystems) were used, which include preoptimized probe and primer sets specific for the genes being validated. The sequences and ID numbers are listed below:
(§2) The house keeping gene elongation factor 1a (EF1a) was used as a reference gene. Normalized expression was calculated using the comparative Ct (or ΔCt) method, and fold changes were derived from the 2-ΔΔCt values for each gene. Graphs were prepared using relative Ct values that were calculated by subtracting the EF1a Ct values from the corresponding Ct values for the gene being measured.

Another series deals with IL1β. Kind of series: mRNA expression in fibroblast cultures (qRT-PCR): IL-1β. It is filed as cell-based, human. The procedure:
as §1
20 ng of total RNA were reverse-transcribed into cDNA and immediately subjected to PCR amplification using the SuperScript Ill Platinum One-Step Quantitative RT-PCR System with ROX (Invitrogen #11745). qRT-PCR amplifications were performed in 20 μl reactions containing 9 μl 2× Reaction Mix with ROX, 0.4 μl SuperScript III RT/Platinum Taq Mix and 1 μl primer (final: 900 nM, Taqman Gene Expression Assay, Applied Biosystems) […]
as §2
(In general: Real-time PCR tracks product formation cycle by cycle.)

The subject of series [2] is full-thickness excisional wounds. Kind of series: Delayed wound healing in a pig model. It is filed as in vivo. The procedure:
The animal experiments were approved by governmental authorities. Two young farm pigs (10-12 kg) were anesthetized and full-thickness excisional wounds were developed using a 6 mm biopsy punch. During the first 5 days after wounding, the wounds were stimulated with a) 0.05% R848 (resiquimod) and 50 μl human wound exudate, b) 0.05% R848 and human serum or c) human serum alone. R848 was applied in the mornings and exudate and serum 6 hours later, in 50 μl of solutions gelified by the addition of 2% HPMC. On days 6-10, wounds were treated once daily with mapracorat or vehicle (50% PG/47.5% H2O/0.5% Tween 80/2% HPMC). The wounds were clinically scored daily. The total wound score (maximum score=21) consisted of wound appearance (dry vs. moist), size, wound content, pus, crust, erythema intensity, erythema width, swelling and necrosis. Reported values are individual values for each of the 2 pigs.

Another series addresses T1, glucocorticoid receptor (Homo sapiens, UniProt P04150).
T1 sequence (P04150 1-777): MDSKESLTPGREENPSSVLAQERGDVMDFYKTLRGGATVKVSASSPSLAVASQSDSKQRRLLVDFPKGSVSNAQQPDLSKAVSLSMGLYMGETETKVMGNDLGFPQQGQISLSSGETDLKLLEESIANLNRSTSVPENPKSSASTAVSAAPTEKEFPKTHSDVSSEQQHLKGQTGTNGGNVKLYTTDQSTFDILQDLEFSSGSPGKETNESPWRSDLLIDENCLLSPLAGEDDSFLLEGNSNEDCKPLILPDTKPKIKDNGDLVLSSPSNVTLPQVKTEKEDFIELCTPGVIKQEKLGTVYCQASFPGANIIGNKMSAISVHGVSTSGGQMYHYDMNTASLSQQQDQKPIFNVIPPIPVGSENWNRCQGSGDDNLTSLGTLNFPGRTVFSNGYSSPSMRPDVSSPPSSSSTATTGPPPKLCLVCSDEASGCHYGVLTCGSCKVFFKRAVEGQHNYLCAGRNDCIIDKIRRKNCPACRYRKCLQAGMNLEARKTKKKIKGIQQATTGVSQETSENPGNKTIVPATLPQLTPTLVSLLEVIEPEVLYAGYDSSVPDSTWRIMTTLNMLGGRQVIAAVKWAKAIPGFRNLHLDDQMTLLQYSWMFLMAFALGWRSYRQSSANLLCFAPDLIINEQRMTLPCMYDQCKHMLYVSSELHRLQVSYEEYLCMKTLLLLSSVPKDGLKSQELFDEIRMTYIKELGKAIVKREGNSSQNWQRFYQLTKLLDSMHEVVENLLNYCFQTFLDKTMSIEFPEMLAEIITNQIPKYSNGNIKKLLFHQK
The settings on record: read-out: EC50, potency for glucocorticoid receptor activation; cited from earlier work.

Regarding `Cc1ccc2c(NC[C@](O)(CC(C)(C)c3cc(F)cc4c3OCC4)C(F)(F)F)cccc2n1` [Mapracorat], the “effect on fibroblast proliferation in the presence of >80 human wound exudates” value in series [1] (>80 human wound exudates from chronic wound patients) was > 120%. Besides, the “fibroblast proliferation (2D) with wound exudate” value in series [1] (WE-4 (FIG. 5), graded concentrations) was “dose-dependently reversed inhibition of wound exudate (WE)-induced fibroblast proliferation”. For the same molecule, the “collagen 1 mRNA expression” value in the series on Collagen 1a was “dose-dependently enhanced collagen 1 mRNA expression in the presence of WE”. Further, the “IL-1β mRNA expression” value was “dose-dependently inhibited IL-1β mRNA expression in the presence of WE” with IL1β (WE-1, graded concentrations, 72-hour incubation (FIG. 8A)) and “no IL-1β induction in medium” in the series on IL1β (medium in the absence of WE, 72-hour incubation (FIG. 8B)). Moreover, in series [2] (10 mM and 1 mM, once daily days 6-10, WE-01, WE-02 and R848 as inducers of delayed wound healing), the total wound score entry is “reduced the wound score from days 6 to 12”. Also, the “healing of control wounds” value in series [2] (control wounds in the presence of human serum (FIG. 13D)) was “did not have any negative effect on the healing of control wounds”. Besides, the EC50 on glucocorticoid receptor was 1.9 nM.

The record behind these values is US12496304B2, “Selective glucocorticoid receptor modifiers for treating impaired skin wound healing” (AKRIBES BIOMEDICAL GMBH, priority 2019, dated 2025).
